Patent publication US20240300908A1, “CHIRAL 3-SULFINYL BENZOIC ACIDS” (BAYER AKTIENGESELLSCHAFT, priority 2021, published 2024)

Assay: HPLC (H3PO4) log P determination
Type: physicochemical

| chromatographic logP | SMILES | log P |
| --- | --- | --- |
|  | C[S+]([O-])c1c(C(F)(F)F)ccc(C(=O)O)c1Cl (racemic) [Example 1 Step 1, 2-chloro-3-[(S,R)-methylsulfinyl]-4-(trifluoromethyl)benzoic Acid] | 0.96 |
| 1 | C[S@+]([O-])c1c(C(F)(F)F)ccc(C(=O)O)c1Cl [Example 1, 2-chloro-3-[(S)-methylsulfinyl]-4-(trifluoromethyl)benzoic acid] |  |
